One data set concerns T-cells and fibroblasts. Briefly: Effects on pro-inflammatory and pro-fibrotic gene expression in T-cells and fibroblasts in vitro. Type of data set: cell-based. Here is the method: At concentrations over 80 nM, HF has a variety of non-specific effects on both T-cells and fibroblasts. […] At the recommended tolerated dose for chronic treatment (0.5 mg/day), plasma levels of HF were ˜0.5 ng/ml (1 nM). (de.Jonge et al., Eur J Cancer, vol. 42(12):1768-74 (2006)).
In T-cells and fibroblasts in vitro, HF has highly specific effects on pro-inflammatory and pro-fibrotic gene expression in a dose range of ˜2-40 nM. At doses>80 nM, non-specific effects on protein synthesis and cell proliferation are seen. The compositions are formulated to deliver a dosage of HF that will have specific effects on pro-inflammatory cytokine expression or ECM architecture in the 2-40 nM range, but keep the dosage below levels that can cause non-specific effects.

In another data set the test system is primary T cells. Type of data set: cell-based. On the procedure: The non-specific cytoxicity of HF in both normal and transformed T-cells at high doses was evaluated. Anti-CD3/anti-CD28 activated primary T cells were harvested 6 days after activation and cultured in the presence of IL-2 with or without HF (100 nM). As a positive control, some T cells were cultured without IL-2 to induce apoptosis (FIG. 3A). Jurkat T cells, a transformed T cell leukemia line, were cultured in complete medium with or without HF (100 nM) as indicated (FIG. 3B). Both primary and Jurkat T cells were cultured for 30 hours and programmed cell death, i.e. apoptosis, was determined by Annexin V staining and propidium iodide (PI) uptake and cells were analyzed by flow cytometry. The percent of apoptotic T cells at each time point was plotted and was defined as Annexin V^+ PI^−. […] In further experiments, titrating amounts of HF were added to primary T cells and apoptosis was determine as above at the indicated time points. At 100 nM HF, but not 30 nM or lower, generalized T-cell apoptosis was observed (FIG. 3C).

For data set [1] the following is noted: human, in vivo; cited from earlier work.
The test system of data set [2] is B220+ B cells and CD8+ T cells. Briefly: B cell and CD8+ T cell proliferation and function. Type of data set: cell-based, mouse. On the procedure: The non-specific effects of HF on B and CD8+ T cells were evaluated. B220+ B cells or CD8+ T cells were isolated from the spleen and peripheral lymph nodes of C57B/6 mice. B cell proliferation and IL-6 production was induced by culturing the cells with LPS (0.5 μg/ml) for 4 days. The effects of HF on B cell function was determined by adding titrating amounts of HF (1.25 nM-40 nM) at the time of LPS stimulation. B cell proliferation was monitored by labeling cells with Carboxyfluorescein diacetate, succinimidyl ester (CFSE; 5 μM) prior to LPS stimulation and determining the rate of CFSE dilution after 4 days by flow cytometric analyses. LPS-induced IL-6 production by B cells was determined by intracellular staining on day 4, following PMA+Ionomycin+Brefeldin A re-stimulation as described above. For CD8+ T cell experiments, purified CD8+ T cells were labeled with CFSE as above and the T cells were activated using anti-CD3 (1 μg/ml) and anti-CD28 (1 μg/ml) antibodies. […] CD8+ T cell proliferation was determined by monitoring CFSE dilution on day 3-post activation; CD25 expression was determined by FACS staining on day 2 of culture; differentiation of CD8+ T cells into cytolytic T cells (CTL) was evaluated on day 4 by determining expression of IFNγ and granzyme B following PMA+Ionomycin+Brefeldin A re-stimulation. […]

The test system of data set [3] is AAR pathway in splenocytes. Put plainly: In vivo activation of the AAR pathway in splenocytes of HF-injected mice. Set-up: species or system C57B/6 mice. The conditions noted are these: 2.5 μg HF i.p., 6 hours post injection. On the procedure:
FIG. 20A is a graph depicting splenocytes from control- and HF-treated mice. C57B/6 mice were injected i.p. with vehicle (DMSO) or 2.5 μg HF. Spleens were harvested 6 hours post injection, red blood cells were lysed and total splenocytes were counted. Data are presented as mean cell counts±SD from 2 mice per group.
FIG. 20C is a graph depicting eIF2α expression in control- and HF-treated mice. Splenocytes from mice injected with DMSO or HF as above were harvested 6 hours post injection. Red blood cells were lysed and immunoblotting was performed on whole cell extracts for phosphorylated or total eIF2α as indicated.
FIG. 20D is a graph depicting the results of quantitative real-time PCR (qPCR) experiments performed for AAR-associated gene expression (Asns, Gpt2, eIF4Ebp1) using cDNA generated from splenocytes of mice injected with DMSO or HF as above. Expression of AAR-associated genes were normalized to Hprt levels and data are presented as mean relative expression from duplicate samples±SD.
Studies were conducted to evaluate the effect of HF treatment in mice.

Some results are limits rather than exact numbers.

In the case of `O=C(CC1NCCCC1O)Cn1cnc2cc(Br)c(Cl)cc2c1=O` (racemic) [HF, 7-bromo-6-chloro-3-[3-(3-hydroxy-2-piperidinyl)-2-oxopropyl]-4(3H)-quinazolinone], the “dose range of highly specific effects on pro-inflammatory and pro-fibrotic gene expression” value in the data set with T-cells and fibroblasts lay within 2 to 40 nM. In the data set with primary T cells, the “concentration at which generalized T-cell apoptosis was not observed” value is ≤ 30 nM and the “concentration at which generalized T-cell apoptosis was observed” value is 100 nM. In addition, the “HF in serum during topical treatment, in words” value in data set [1] is listed as “undetectable in serum”. The “dose at which B and CD8+ T cells were profoundly impaired in proliferation and function” value in data set [2] is reported as “greater than 20 nM”. For the same compound, in data set [2] (doses lower than 10 nM), the “effect on B and CD8+ T cell function or proliferation, in words” value is reported as “little or no effect”. The “eIF2α phosphorylation and AAR-associated gene expression in splenocytes, in words” value in data set [3] was “rapidly activates eIF2α phosphorylation and AAR-associated gene expression”.

(Values after patent publication US20110212100A1, “METHODS FOR MODULATING DEVELOPMENT AND EXPANSION OF IL-17 EXPRESSING CELLS” (priority 2007, published 2011).)
